In paper PMC11547375, “Peptide Dimerization as a Strategy for the Development of Antileishmanial Compounds” (Molecules, 2024):
Like-named read-outs stand apart in the source and are kept apart here. Positions of bridges follow the written chain, without caps; N, C: chain ends. Residues, ends and D or L forms follow the SMILES beside them. Chains are numbered I, II in the order given. No end group written: not given here.

What was measured:
LmCPB2.8ΔCTE (CPB) = LmCPB2.8ΔCTE (CPB) (Leishmania mexicana, UniProt P36400); conditions: cited from earlier work
Source text: (§1) In addition to the membrane, peptides may have other therapeutic targets in Leishmania. Enzymes are essential for functional integrity and virulence, highlighting the fundamental role of cysteine proteases in the infectious process, so their inhibition can have high therapeutic potential, enabling the design of new drugs. In L. mexicana, three cysteine protease genes were identified as virulence factors: lmcpa, lmcpb, and lmcpc. Of these, lmcpb encodes a protein product like cathepsin L and is the most abundant in the amastigote form of the parasite, so this enzyme is an i ...

[1] = molecular target: LmCPB2.8ΔCTE (CPB), cysteine protease of Leishmania mexicana (L. mexicana) (UniProt P36400)
[2] = Carboxyfluorescein leakage from POPC-Chol (4:1) vesicles mimicking host membrane; conditions: POPC–Chol (4:1) LUVs, peptide tested at 1 and 5 µmol L^−1
Method: Large unilamellar vesicles (LUVs) composed of POPC (1-palmitoyl-2-oleoyl-sn-glycero-3-phosphatidylcholine) and cholesterol (Chol) (4:1), or POPC, POPS (1-palmitoyl-2-oleoyl-sn-glycero-3-serine), and ergosterol (Erg) (16:3:1) were prepared according to the methods described by Lorenzón et al. [34]. […] We employed a Hitachi U-2000 spectrophotometer (TSHa) (Hitachi, Tokyo, Japan) or a Fluorolog-3 FL3-122 spectrofluorometer (Horiba Jobin Yvon, Glasgow, UK) ((TSHa)2K) for analyses.

[3] = POPC–POPS–Erg (16:3:1) LUVs
Method: To evaluate the effect of monomeric and dimeric peptides on the lipid membrane and relate it to the mechanism of action, vesicle permeabilization studies were carried out for evaluating the possible mechanisms on membrane. The leakage assays were carried out with carboxyfluorescein (CF) internalized in the mimetic membranes. The vesicles of POPC–Chol (4:1) and POPC–POPS (phosphatidylserine)–ergosterol (16:3:1) were employed. These mimetic membranes were designed considering the compositions of phospholipids and steroids in the host membrane and in the Leishmania membrane, respectively. The constitution of the cell membrane of Leishmania varies according to the morphology of the parasite and its stage of development, but is more negative than the cell membranes of mammals, which allow for cationic AMPs to bind more easily. Our studies were based on the membrane of the promastigote form, which is characterized by the presence of mainly phosphatidylcholine, phosphatidylethanolamine, phosphatidylinositol, phosphatidylserine, and ergosterol, in addition to diglycerides and glycolipids containing mannose and galactose. In the amastigote form of Leishmania, there is a higher concentration of fatty acids and cholesterol, while triglycerides and ergosterol decrease during the transition from promastigotes to amastigotes. In addition, the main phospholipids found are sphingomyelin and phosphatidylserine, with lower proportions of phosphatidylinositol and lysophosphatidylethanolamine.
Large unilamellar vesicles (LUVs) composed of POPC (1-palmitoyl-2-oleoyl-sn-glycero-3-phosphatidylcholine) and cholesterol (Chol) (4:1), or POPC, POPS (1-palmitoyl-2-oleoyl-sn-glycero-3-serine), and ergosterol (Erg) (16:3:1) were prepared according to the methods described by Lorenzón et al.. […] We employed a Hitachi U-2000 spectrophotometer (TSHa) (Hitachi, Tokyo, Japan) or a Fluorolog-3 FL3-122 spectrofluorometer (Horiba Jobin Yvon, Glasgow, UK) ((TSHa)2K) for analyses.

[4] = test system: L. mexicana promastigotes; test: Membrane damage by flow cytometry with propidium iodide; format: cell-based, Leishmania mexicana; conditions: 1 × IC50; promastigotes 5 × 10^6 cells mL^−1, PI 80 µg mL^−1 20 min; given in Figure 11
Method: The mechanism of action of the peptides on the membrane was also evaluated by flow cytometry using propidium iodide. Flow cytometry has been considered more reliable for studies of cell susceptibility because it provides intrinsic information about cells, such as size and complexity. The use of fluorochromes allows for the evaluation of a wide range of physiological or morphological parameters, such as membrane integrity, pH, membrane potential, and viability. The results presented here (Figure 11) are expressed as the fluorescence intensity of the PI-labeled L. mexicana cells, considering that the damage caused to the parasite membrane facilitated the entry of PI into the cell nucleus.
For flow cytometry assays, the promastigotes of L. mexicana were grown in Schneider medium (Sigma) supplemented with inactivated fetal bovine serum. […] After incubation, the promastigotes were washed twice with PBS and labeled with propidium iodide (PI) (80 μg mL^−1) for 20 min, followed by centrifugation at 2000× g for 10 min and resuspension in 500 μL of PBS. The samples were analyzed using an Accuri C6 flow cytometer (BD Biosciences, Franklin Lakes, NJ, USA) and proprietary software, with at least 50,000 events effectively included in each analysis. All the experiments were performed using biological duplicates in triplicate at each experimental point.

[5] = test system: L. mexicana promastigotes; test: Membrane damage by fluorescence microscopy (PI/Hoechst); format: cell-based, Leishmania mexicana; conditions: 1.25 and 2.5 µmol L^−1, 24 h; ratio PI-labeled / Hoechst-labeled parasites
Method: Fluorescence microscopy assays were also employed to investigate the mechanism of action of the peptides. […] In addition, the ratio of PI-labeled cells to Hoechst-labeled cells was used to determine the percentage of cells that had suffered some type of membrane damage. Images were also obtained after the treatments of the promastigote form with the TSHa peptide, the dimeric (TSHa)2K peptide, and the Amp B control drug at concentrations of 2.5 and 1.25 µmol L^−1 after 2 and 24 h to evaluate the mechanism of action of these molecules and whether the time of exposure to the compounds might affect their activity. […] The results for the other treatments are provided in the Supplementary Materials (Figures S1–S10).
For fluorescence microscopy, assays were carried out with promastigotes of L. mexicana in the exponential phase of growth in passage P3 at a concentration of 1 × 10^7 cells mL^−1. Treatments were performed with Amp B and the peptides at concentrations of 1.25 or 2.5 μmol L^−1 for 2 or 24 h, respectively. The parasites were labeled with 5 μg mL^−1 of Hoechst solution (stock: 1 mg mL^−1) for 5 min, followed by the addition of PI (1 mg mL^−1) to a final concentration of 40 μg mL^−1 and incubation for 20 min at room temperature. […] Images were acquired with a fluorescence microscope (Nikon DS-R11,10 Nikon Instruments Inc., Melville, NY, USA) at 40× magnification. […]

[6] = test system: L. mexicana intracellular amastigotes; test: Infection index, L. mexicana intracellular amastigotes in macrophages; format: cell-based, Leishmania mexicana; conditions: 24 h of treatment
Method: During the infection process, the amastigotes replicated in macrophages are transmitted to healthy cells, leading to the amplification of infection; the greater the parasitic load is, the worse the infection is. The infection index (percentage of infected cells x number of parasites per infected cell) was used to evaluate this transmission. In this work, the infection index was determined using L. mexicana for 24 h (Figure 6) and 48 h of treatment (Figure 7).
The L. amazonensis promastigotes (MPRO/BR/1972/M1841-LV-79) were grown in LIT culture medium, while the L. mexicana promastigotes (MNYC/BZ/62/M379) were cultivated in Schneider’s medium (Sigma-Aldrich, St. Louis, MO, USA), supplemented with 10% heat-inactivated fetal bovine serum (FBS; Gibco/Invitrogen, Waltham, MA, USA) at 28 °C until reaching the mid-log phase of growth. Macrophages were sourced from the peritoneal cavity of Swiss mice using the methodology outlined by de Almeida et al.. Anti-promastigote and anti-amastigote assays of L. mexicana and L. amazonensis and their cytotoxic activity were conducted as previously described. IC50 is the concentration capable of killing 50% of the parasites. […] Cytotoxicity for the host cells and the protozoan species was compared and expressed as the selectivity index (SI), calculated as the ratio of the CC50 for macrophages to the IC50 for the protozoan species.

[7] = test system: L. amazonensis intracellular amastigotes; test: Infection index, L. amazonensis intracellular amastigotes in macrophages; format: cell-based, Leishmania amazonensis; conditions: 24 h of treatment
cathepsin B = conditions: cited from earlier work
Source text: as §1

[8] = test system: L. amazonensis amastigotes; test: microbe, parasite or virus in culture; format: cell-based, Leishmania amazonensis; conditions: Leishmania amazonensis, read-out: IC50 Amastigote
Method: (§2) Macrophages were sourced from the peritoneal cavity of Swiss mice using the methodology outlined by de Almeida et al.. Anti-promastigote and anti-amastigote assays of L. mexicana and L. amazonensis and their cytotoxic activity were conducted as previously described. […] Cytotoxicity for the host cells and the protozoan species was compared and expressed as the selectivity index (SI), calculated as the ratio of the CC50 for macrophages to the IC50 for the protozoan species.

[9] = test system: L. mexicana promastigotes; test: microbe, parasite or virus in culture; format: cell-based, Leishmania mexicana; conditions: Leishmania mexicana, ± standard deviation, SD, read-out: IC50 Promastigote
Method: (§3) The L. amazonensis promastigotes (MPRO/BR/1972/M1841-LV-79) were grown in LIT culture medium, while the L. mexicana promastigotes (MNYC/BZ/62/M379) were cultivated in Schneider’s medium (Sigma-Aldrich, St. Louis, MO, USA), supplemented with 10% heat-inactivated fetal bovine serum (FBS; Gibco/Invitrogen, Waltham, MA, USA) at 28 °C until reaching the mid-log phase of growth. Macrophages were sourced from the peritoneal cavity of Swiss mice using the methodology outlined by de Almeida et al.. Anti-promastigote and anti-amastigote assays of L. mexicana and L. amazonensis and their cytotoxic activity were conducted as previously described. IC50 is the concentration capable of killing 50% of the parasites. The drug concentration that inhibited 50% of cell growth was denoted as the 50% cytotoxic concentration (CC50). Cytotoxicity for the host cells and the protozoan species was compared and expressed as the selectivity index (SI), calculated as the ratio of the CC50 for macrophages to the IC50 for the protozoan species.

L. mexicana amastigotes = test: microbe, parasite or virus in culture; format: cell-based, Leishmania mexicana; conditions: Leishmania mexicana, ± standard deviation, SD
Method: as §2

[10] = test system: L. amazonensis promastigotes; test: microbe, parasite or virus in culture; format: cell-based, Leishmania amazonensis; conditions: Leishmania amazonensis, read-out: IC50 Promastigote
Method: as §3

peritoneal macrophages = test: Cytotoxicity in peritoneal macrophages; format: cell-based; conditions: peritoneal macrophages of Swiss mice
Method: as §3

## CC(C)C[C@H](NC(=O)[C@H]1O[C@@H]1C(=O)O)C(=O)NCCCCN=C(N)N (relative stereo) [Peptide E64, L-trans-epoxysuccinyl-leucylamido-(4-guanidino)butane]
LmCPB2.8ΔCTE (CPB)
  inhibition of Leishmania CPB, in words: in the nanomolar range is a potent irreversible inhibitor

## dimeric peptide (TSHa)2K
[1]
  IC50 of inhibition of the enzyme activity of CPB (LmCPB2.8ΔCTE): 3600 nM
  Inhibitory Activity at 20 μmol L^−1 (%): inhibition of the enzyme activity of CPB (LmCPB2.8ΔCTE) by the peptide: 98%

## Cc1ccc(C(=O)[C@@]23C(=O)OC(=O)C2N(C)[C@]2(c4ccccc4)Sc4ccccc4[C@H]32)cc1 (stereo partly drawn) [derivative of benzo[b]thiophene, (4aS,9bS,9cS)-4-methyl-9c-(4-methylbenzoyl)-4a-phenyl-4,4a,9b,9c-tetrahydro-1H-benzo[4,5]thieno[2,3-b]furo[3,4-d]pyrrole-1,3(3aH)-dione]
LmCPB2.8ΔCTE (CPB); read-out: IC50-CEC, LmCPB2.8△CTE (CEC)
  IC50: 3700 nM

## CC[C@H](C)[C@H](NC(=O)CNC(=O)[C@H](CO)NC(=O)[C@H](CC(C)C)NC(=O)[C@@H](N)Cc1ccccc1)C(=O)N[C@H](C(=O)NCC(=O)N[C@@H](CCSC)C(=O)N[C@@H](CC(C)C)C(=O)NCC(=O)N[C@@H](CCCCN)C(=O)N[C@@H](CC(C)C)C(=O)N[C@@H](Cc1ccccc1)C(=O)NCCCC[C@H](NC(=O)[C@H](Cc1ccccc1)NC(=O)[C@H](CC(C)C)NC(=O)[C@H](CCCCN)NC(=O)CNC(=O)[C@H](CC(C)C)NC(=O)[C@H](CCSC)NC(=O)CNC(=O)[C@@H](NC(=O)[C@@H](NC(=O)CNC(=O)[C@H](CO)NC(=O)[C@H](CC(C)C)NC(=O)[C@@H](N)Cc1ccccc1)[C@@H](C)CC)C(C)C)C(N)=O)C(C)C [(TSHa)2K] (I: H-FLSGIVGMLGKLFK-NH2 / II: H-FLSGIVGMLGKLF; amide I:14-II:C; N-terminus assumed)
[2]
  permeabilization of POPC–Chol vesicles, in words: No permeabilization
[3]; peptide 1 µmol L^−1, fluorescence
  CF release: 20%
[3]; peptide 5 µmol L^−1, fluorescence
  CF release: 45%
[4]
  V1-L gate (cells not labeled with PI): 52.8%
  V1-R gate (PI-labeled cells): 47.2%
[5]
  membrane damage, in words: caused damage to the membrane
[6]
  decrease of infection rate (infection index) vs untreated infected cells: 5.5 fold
[7]
  decrease of infection rate (infection index) vs untreated infected cells: 3.8 fold

## Z-Arg-Leu-Val-Gly-Ile-Val-O-methyl
Cathepsin B
  Ki: 0.088 nM

## C[C@@H]1[C@H](O)[C@@H](C)/C=C/C=C/C=C/C=C/C=C/C=C/C=C/[C@H](O[C@@H]2O[C@H](C)[C@@H](O)[C@H](N)[C@@H]2O)C[C@@H]2O[C@](O)(C[C@@H](O)C[C@@H](O)[C@H](O)CC[C@@H](O)C[C@@H](O)CC(=O)O[C@H]1C)C[C@H](O)[C@H]2C(=O)O [Amp B, Amphotericin B]
[8]
  IC50: 630 ± 20 nM
[4]
  V1-L gate (cells not labeled with PI): 55.2%
  V1-R gate (PI-labeled cells): 44.8%
[9]
  IC50: 500 ± 200 nM
L. mexicana amastigotes; 24 h of treatment, read-out: IC50 Amastigote 24 h of Treatment
  IC50: 630 ± 1200 nM
L. mexicana amastigotes; 48 h of treatment, read-out: IC50 Amastigote 48 h of Treatment
  IC50: 630 ± 1200 nM
[10]
  IC50: 700 ± 200 nM
[5]
  membrane damage, in words: caused damage to the membrane
Peritoneal macrophages; Table 1, ± standard deviation, SD
  CC50 Peritoneal Macrophages: 24000 ± 20 nM
Peritoneal macrophages; Table 2
  CC50 Peritoneal Macrophage: 24000 ± 400 nM

## FLSGIVGMLGKLF-NH2 [temporin peptide TSHa]
[1]
  IC50 of inhibition of the enzyme activity of CPB (LmCPB2.8ΔCTE): 9200 nM
  Inhibitory Activity at 20 μmol L^−1 (%): inhibition of the enzyme activity of CPB (LmCPB2.8ΔCTE) by the peptide: 94.2%
